Assay results taken from patent US20080026409A1, “SALT-SENSITIVE HYPERTENSION” (THE BOARD OF TRUSTEES OF THE UNIVERSITY OF ILLINOIS, priority 2006, published 2008).
“Also recorded” adds a separate entry of the source.

Legend:
[1] = system: Na/K ATPase in LLCPK1 cells; experiment: Na/K ATPase distribution by confocal immunofluorescence; assay type: cell-based; settings: for Na/K ATPase distribution (endocytosis, membrane abundance): LLCPK1 cells, Ang IV 10 nM×12 hours, oubain 50 nM×12 hours (control); for APN induced endocytosis of Na/K ATPase: LLCPK1 cells with APN overexpression plus siRNA
Excerpt: FIGS. 6A-6G are scans of photographs showing Na/K ATPase distribution in LLCPK1 cells by immuno fluorescence (complementary to FIG. 5): Confocal images from z-stacked permeabilized LLCPK1 cells probed for Na/K ATPase using monoclonal Ab against the alpha subunit of Na/K ATPase (1:100). FIG. 6A: Control. […] All images were generated with a Zeiss LSM 410 laser scanning confocal microscope at 100×. All settings were the same for all images obtained. Images are representative of experiments repeated twice. Arrows: endocytosis of Na/K ATPase.
Confocal microscopy: Confocal fluorescence microscopy is performed using a Zeiss LSM 510 confocal microscope and Anti alphal Na/K ATPase mAb (Upstate/ Millipore, Billerica, Mass.) to further confirm the internalization of surface Na/K ATPase.

[2] = system: basolateral Na/K ATPase in LLCPK1 cells; experiment: Basolateral Na/K ATPase expression by surface biotinylation and Western blot; assay type: cell-based; settings: for expression of basolateral Na/K ATPase: LLCPK1 cells, Ang IV 10^−9 M×20 hours, siRNA transfection
Protocol: Representative autoradiograph of Na-K ATPase as detected by Western blot represented above bar-graph. Upper panel: representative autoradiograph of Na-K ATPase as detected by Western blot. Overexpression of APN( APN Over Exp) n=3 (except Ang IV, n=6) * P<0.05 compared to control paired t-test) Complementary measurements of Na/K ATPase expression by confocal microscopy-FIG. 5).
(§1) Na/K ATPase expression and activity are measured by basolateral surface biotinylation and oubain-inhibitable ATPase activity, respectively, in cells cultured in Transwell plates.
In complementary experiments, basolateral Na/K ATPase expression in cultured cells is measured both by biotinylation and confocal microscopy. Biotinylation technique to assess the surface Na/K ATPase protein has already been established in our laboratory. Biotinylation is performed as using NHS-S-S-biotin (Pierce). Labeling for 20 min at the basolateral domain in cells grown in transwells at 4° C. to stop endocytosis and internalization of antigen. Biotinylated antigens are immunoprecipitated with streptavidin agarose and released by incubation in 10 mM dithiothreitol, reconstituted in Laemmli buffer, subjected to SDS-PAGE and then probed with Anti alphal Na/K ATPase mAb (Upstate/ Millipore, Billerica, Mass.). For analysis, surface Na/K ATPase is compared to total protein as determined by immunoblotting in solubilized cell extract and with the amount of Na/K ATPase not removed by avidin precipitation method (intracellular pool).

[3] = system: LLC-PK cells; experiment: Quantitative immunohistochemistry for APN and Ang IV after siRNA; assay type: cell-based; settings: siRNA 2 μg per well, 48 hours, Q-IHC, P<0.05 vs control
Protocol: The top panel is a scan of photographs showing quantitative immunohistochemistry (QIH-C) for APN and Ang IV. Cells were grown in 4 well chamber plates. For siRNA, each well was incubated (37° C. for 5 hours) with 1 ml media containing 4 μl of Enhancer R, 4 μl of RNAi (2 μg), 8 μl of Transmessenger Reagent and […] of optimem followed by 0.5 ml of optimem+20% FBS for 48 hours. The cells were fixed with 3.7% formaldehyde and stained using DakoCytomation staining kit. The amount of DAB staining was measured using Q-IHC. N=10 fields analyzed/transfection×2 transfections P<0.05 vs control. Upper panel: representative fields. Positive staining-arrows.
APN abundance regulates Ang IV: To initially address the hypothesis that the mechanism for APN-mediated regulation of Na/K ATPase is via Ang IV signaling, the effect of suppression of endogenous APN expression with siRNA on Ang IV abundance was measured in LLC-PK cells (FIG. 3A-3B). siRNA to APN decreased both APN and Ang IV expression, indicating the Ang IV level was regulated by APN.
For quantitative immunohistochemistry, a standard three-stage indirect immunoperoxidase technique is used on formalin fixed kidney sections. Images are acquired using a 4.9 million pixel digital scanning 24-bit RGB camera, saved in TIFF format, and used for subsequent analysis. […]

[4] = system: rat proximal tubules; settings: fresh suspensions of control or nystatin-stimulated rat proximal tubules; cited from earlier work
[5] = system: HK-2 cells; settings: cited from earlier work
[6] = system: rat; settings: infusion into the renal artery, cited from earlier work
[7] = system: Na/K ATPase in LLCPK1 cells; experiment: Na/K ATPase activity (oubain-inhibitable ATPase) in cultured cells; assay type: cell-based; settings: FIG. 7, n=1 (triplicate)
Protocol: FIG. 7 is a graph showing Na/K ATPase activity parallels changes in basolateral Na/K ATPase expression in LLCPK1 cells treated with siRNA to APN and AT4; Ang IV and oubain (control). n=1 (triplicate). siRNA to APN (siRNA-APN); siRNA to AT4 (siRNA-AT4); APN over-expression (APN o/e).
as §1
Measurement of Na/KATPase expression and activity: Na/K ATPase activity in membranes isolated from proximal tubule fractions and membranes from cultured/transfected cell lines is measured as the rate of inorganic phosphate, using coloring reagent (10% ammonium molybdate in 10 N sulfuric acid +ferrous sulfate) released in the presence or absence of oubain.

[8] = system: Dahl SS/Jr rats on 8% NaCl; experiment: Radiotelemetric blood pressure monitoring during Ang IV infusion; assay type: in vivo, rat; settings: 10 day Ang IV infusion 7 pmol/minute, n=4, P<0.05
Protocol: Radiotelemetric blood pressure monitoring with 10 day Ang IV (7 pmol/minute) infusion (===). Systolic BP (peak) 157-188 mmHg. BP for each rat normalized to day 9, each BP averaged during 12 hour dark cycle (rats maintained 12 hours light/dark cycle). Day 0—surgical implantation of pressure transducer and infusion pump. n =4,- - - less than days 6-9 (initial infusion of Ang IV) and 16-24 (P<0.05).
Continuous arterial blood pressure monitoring is by radiotelemetry in freely moving instrumented rats. An implantable osmotic pump is used for infusion experiments.
First, for tail-cuff measurements, the rats must be restrained which falsely elevates the blood pressure due to adrenergic storm. With radiotelemetry, the rats are unrestrained and blood pressures are measured continuously in freely moving rats in large cages. […] Third, with tail cuff, blood pressures are measured once or at most twice a day, whereas, with radiotelemetry, blood pressures are measured continuously, allowing assessment of diurnal patterns and the time-integral of overall blood pressure burden. […]
Survival Surgery and Radiotelemetry Measurement of Central Aortic Pressure. […] Once the transmitter is activated by a special magnet, measurements of pulsatile central aortic blood pressure is recorded continuously by placing an individual receiver under each rat's cage. […]

[9] = system: primary cultures of rat renal epithelial cells; settings: cited from earlier work
[10] = system: Dahl SR rats; experiment: Infusion of Anpep inhibitor, salt-sensitivity by radiotelemetric blood pressure; assay type: in vivo, rat; settings: preliminary experiments
Protocol: For these experiments, continuous radiotelemetric blood pressure monitoring is performed in rats instrumented with transducers and osmotic mini-pumps.

Compound: C[C@@H]1O[C@@H](O[C@H]2C[C@@H](O)[C@]3(CO)[C@H]4[C@H](O)C[C@]5(C)[C@@H](C6=CC(=O)OC6)CC[C@]5(O)[C@@H]4CC[C@]3(O)C2)[C@H](O)[C@H](O)[C@H]1O [oubain]
- Na/K ATPase distribution (endocytosis, membrane abundance) [1]: endocytosis

Compound: 5′-UCGGGCACAGAUCAUUAUUd(TT)-3′; SEQ ID NO: 3 [siRNA to APN]
- expression of basolateral Na/K ATPase [2]: increased
- APN expression [3]: reduces; also recorded: decreased
- Ang IV expression [3]: reduces; also recorded: decreased

Compound: CC[C@H](C)[C@H](NC(=O)[C@H](Cc1ccc(O)cc1)NC(=O)[C@@H](N)C(C)C)C(=O)N[C@@H](Cc1cnc[nH]1)C(=O)N1CCC[C@H]1C(=O)N[C@@H](Cc1ccccc1)C(=O)O [Ang IV, V-Y-I-H-P-F (SEQ ID NO: 2)]
- transcellular Na+ transport (proximal tubule O2 consumption rates) [4]: decreases
- Na uptake (reflecting decreased flux) [5]: increases Na uptake
- expression of basolateral Na/K ATPase [2]: tend to reduce; also recorded: reduced
- cortical blood flow ([6]; rat): increases cortical blood flow
- Na excretion [6]: increases urinary Na excretion; also recorded: promotes Na excretion
- blood pressure [6]: lowers blood pressure
- Na/K ATPase distribution (endocytosis, membrane abundance) [1]: endocytosis and reduced membrane abundance of Na/K ATPase
- activity of basolateral Na/K ATPase [7]: reduce
- blood pressure (BP) [8]: reduces blood pressure; also recorded: lowers arterial blood pressure
- transcellular Na transport [9]: dose-dependent decrease

Compound: CC(C)C[C@H](NC(=O)C(O)[C@H](N)Cc1ccccc1)C(=O)O (stereo partly drawn) [bestatin, (2S,3R)-3-amino-2-hydroxy-4-phenylbutanoyl-L-leucine]
- salt-sensitivity [10]: induced sensitivity

Compound: 5′-AACCTGAGTCAGGACGTAAT-3′; SEQ ID NO: 4 [siRNA to AT4 receptor]
- regulation (reduction) of Na/K ATPase expression by Ang IV ([2]; LLCPK1 cells treated with siRNA and Ang IV): partially abolishes; also recorded: abrogated
- expression of basolateral Na/K ATPase [2]: increase
- APN induced endocytosis of Na/K ATPase [1]: partially blocks
- APN induced endocytosis of Na/K ATPase ([1]; listed as siRNA to the AT4 receptor): abrogrates
